Read-outs that look alike come from different tables or passages of the source.
Assays:
[1] = log P determination by HPLC (EEC Directive 79/831 Annex V.A8); assay type: physicochemical
Description: The measurements were carried out using an Agilent 1100 LC system with a 50*4.6 Zorbax Eclipse C18 1.8 μm column (oven temperature 55° C., flow rate 2.0 ml/min).
The following mobile phases were used:
Mobile phase A: acetonitrile+1000 μl of formic acid/l
Mobile phase B: Millipore water+900 μl of formic acid/l

[2] = tested on: larvae of the mustard beetle (Phaedon cochleariae); assay: Phaedon test (PHAECO spray treatment); settings: for pest or weed control at 100 g/ha: Phaedon cochleariae, in Brassica rapa, foliar, read-out: effect in % (beetle larvae killed)
[3] = tested on: caterpillars of the armyworm (Spodoptera frugiperda); assay: Spodoptera frugiperda test (SPODFR spray treatment); assay type: in vivo; settings: Spodoptera frugiperda, foliar, read-out: effect in % (caterpillars killed)
Description: Solvent: 78.0 parts by weight of acetone

[4] = reversed-phase HPLC, Zorbax Eclipse C18 column, by HPLC according to EEC Directive 79/831 Annex V.A8, read-out: log P
[5] = application rate 100 g/ha, maize leaf discs
[6] = reversed-phase HPLC, Zorbax Eclipse C18 column, determined by HPLC according to EEC Directive 79/831 Annex V.A8, read-out: log P

SMILES | chromatographic logP ([1]; log P) | pest or weed control at 100 g/ha [2] | pest or weed control at 100 g/ha ([3]; in Zea mays) | also measured
Cc1cc(I)cc(C(=O)NC2CCC2)c1NC(=O)c1cc(Cn2nnc(C(F)(F)F)n2)nn1-c1ncccc1Cl [Example 72] | 3.85 | ≥ 80% | – | –
Cc1cc(Cl)cc(C(=O)NC(C)(C)C)c1NC(=O)c1cc(Cn2nnnc2C(F)(F)F)nn1-c1ncccc1Cl [Example 197] | 3.47 | ≥ 80% | ≥ 80% | –
Cc1cc(Cl)cc(C(=O)NC(C)C2CC2)c1NC(=O)c1cc(Cn2nnc(C(F)F)n2)nn1-c1ncccc1Cl (centres unmarked) [Example 256] | 3.24 | ≥ 80% | ≥ 80% | –
CC(C)(C)NC(=O)c1cc(Cl)cc(Cl)c1NC(=O)c1cc(Cn2nnc(C(F)(C(F)(F)F)C(F)(F)F)n2)nn1-c1ncccc1Cl [Example 390] | – | ≥ 80% | – | chromatographic logP [1, 4]: 4.47; pest or weed control at 100 g/ha [3, 5]: ≥ 80%
Cc1cc(I)cc(C(=O)NC(C)(C)C)c1NC(=O)c1cc(Cn2nnc(C(F)(F)F)n2)nn1-c1ncccc1Br [Example 352] | – | ≥ 80% | – | chromatographic logP [1, 4]: 4.09; pest or weed control at 100 g/ha [3, 5]: ≥ 80%
CNC(=O)c1cc(Cl)cc(C)c1NC(=O)c1cc(Cn2nnc(C(F)(F)F)n2)nn1-c1ccc(Cl)cc1Cl [Example 239] | – | ≥ 80% | – | chromatographic logP [1, 4]: 3.97; pest or weed control at 100 g/ha [3, 5]: ≥ 80%
CNC(=O)c1cc(Cl)cc(C)c1NC(=O)c1cc(Cn2nnc(C(F)(F)C(F)(F)F)n2)nn1-c1ccccc1Cl [Example 402] | – | ≥ 80% | – | chromatographic logP [1, 6]: 3.78; pest or weed control at 100 g/ha [3, 5]: ≥ 80%
CNC(=O)c1cc(Cl)cc(C)c1NC(=O)c1cc(Cn2nnc(C(F)(F)F)n2)nn1-c1ncccc1Br [Example 331] | – | ≥ 80% | – | chromatographic logP [1, 4]: 3.01; pest or weed control at 100 g/ha [3, 5]: ≥ 80%
Cc1cc(Br)cc(C(=O)NCC#N)c1NC(=O)c1cc(Cn2nnc(C(F)(F)F)n2)nn1-c1ncccc1C(F)(F)F [Example 248] | – | ≥ 80% | – | chromatographic logP [1, 4]: 3.21; pest or weed control at 100 g/ha [3, 5]: ≥ 80%
O=C(NC1CC1)c1cc(Cl)cc(Cl)c1NC(=O)c1cc(Cn2nnnc2C(F)(F)C(F)(F)F)nn1-c1ncccc1Cl [Example 204] | 3.24 | ≥ 80% | ≥ 80% | –
Cc1cc(Cl)cc(C(=O)NC(C)C)c1NC(=O)c1cc(Cn2nnc(-c3ccc(Br)cc3)n2)nn1-c1ncccc1Cl | – | – | – | Kill in %/7 days ([2]; 0.8 g/ha): 0%
CNC(=O)c1cc(Cl)cc(C)c1NC(=O)c1cc(Cn2nnc(C(F)(F)F)n2)nn1-c1ccccc1 [Example 404] | – | ≥ 80% | – | chromatographic logP [1, 6]: 3.19; pest or weed control at 100 g/ha [3, 5]: ≥ 80%
CNC(=O)c1cc(Cl)cc(Cl)c1NC(=O)c1cc(Cn2nnnc2C(F)(F)F)nn1-c1ncccc1Cl [Example 184] | 2.63 | ≥ 80% | ≥ 80% | –
Cc1cc(C)c(NC(=O)c2cc(Cn3nnc(C(F)(F)F)n3)nn2-c2ncccc2Cl)c(C(=O)NCC#N)c1 [Example 85] | 2.83 | ≥ 80% | ≥ 80% | –
O=C(NCC1CC1)c1cc(Cl)cc(Cl)c1NC(=O)c1cc(Cn2nnc(C(F)(C(F)(F)F)C(F)(F)F)n2)nn1-c1ncccc1Cl [Example 392] | – | ≥ 80% | – | chromatographic logP [1, 4]: 4.17; pest or weed control at 100 g/ha [3, 5]: ≥ 80%
Cc1cc(C#N)cc(C(=O)NCC#N)c1NC(=O)c1cc(Cn2nnc(C(F)(F)C(F)(F)F)n2)nn1-c1ncccc1Cl [Example 210] | 3.01 | ≥ 80% | ≥ 80% | –
Cc1cc(C#N)cc(C(=O)NCC(C)C)c1NC(=O)c1cc(Cn2nnc(C(F)(F)F)n2)nn1-c1ncccc1Cl [Example 38] | 3.37 | ≥ 80% | ≥ 80% | –
Cc1cc(I)cc(C(=O)NC2CC2)c1NC(=O)c1cc(Cn2nnc(C(F)(F)F)n2)nn1-c1ncccc1Cl [Example 69] | 3.46 | ≥ 80% | ≥ 80% | –
Cc1cc(I)cc(C(=O)NCC#N)c1NC(=O)c1cc(Cn2nnc(C(F)(C(F)(F)F)C(F)(F)F)n2)nn1-c1ncccc1Cl [Example 384] | 3.82 | ≥ 80% | ≥ 80% | –
Cc1cc(I)cc(C(=O)NC2CC2)c1NC(=O)c1cc(Cn2nnc(C(F)(C(F)(F)F)C(F)(F)F)n2)nn1-c1ncccc1Cl [Example 379] | 4.18 | ≥ 80% | ≥ 80% | –
CNC(=O)c1cc(C#N)cc(C)c1NC(=O)c1cc(Cn2nnc(C(F)(F)F)n2)nn1-c1ccc(OC(F)(F)F)cc1Cl [Example 531] | – | ≥ 80% | – | chromatographic logP [1, 6]: 3.82; pest or weed control at 100 g/ha [3, 5]: ≥ 80%
CC(NC(=O)c1cc(Cl)cc(Cl)c1NC(=O)c1cc(Cn2nnc(C(F)(C(F)(F)F)C(F)(F)F)n2)nn1-c1ncccc1Cl)C1CC1 (centres unmarked) [Example 387] | – | ≥ 80% | – | chromatographic logP [1, 4]: 4.42; pest or weed control at 100 g/ha [3, 5]: ≥ 80%

SMILES | chromatographic logP ([1]; log P) | pest or weed control at 100 g/ha [2] | pest or weed control at 100 g/ha ([3]; in Zea mays) | also measured
Cc1cc(C)c(NC(=O)c2cc(Cn3nnc(C(F)(F)F)n3)nn2-c2ncccc2Cl)c(C(=O)NC2CC2)c1 [Example 119] | 3.04 | ≥ 80% | ≥ 80% | –
CNC(=O)c1cc(C#N)cc(C)c1NC(=O)c1cc(Cn2nnc(C(F)F)n2)nn1-c1ncccc1Cl [Example 262] | 2.17 | ≥ 80% | ≥ 80% | –
CCNC(=O)c1cc(Br)cc(C)c1NC(=O)c1cc(Cn2nnc(C(F)(F)F)n2)nn1-c1ncccc1Cl [Example 34] | 3.32 | ≥ 80% | ≥ 80% | –
CCC(COC(F)(F)F)NC(=O)c1cc(C#N)cc(C)c1NC(=O)c1cc(Cn2nnc(C(F)(F)F)n2)nn1-c1ncccc1Cl (centres unmarked) [Example 117] | – | ≥ 80% | – | chromatographic logP [1, 4]: 3.74; pest or weed control at 100 g/ha [3, 5]: ≥ 80%
Cc1cc(Cl)cc(C(=O)NC2CC2)c1NC(=O)c1cc(Cn2nnc(C(F)(F)F)n2)nn1-c1ncccc1C(F)(F)F [Example 225] | – | ≥ 80% | – | chromatographic logP [1, 4]: 3.39; pest or weed control at 100 g/ha [3, 5]: ≥ 80%
Cc1cc(C#N)cc(C(=O)NC(C)C2CCC2)c1NC(=O)c1cc(Cn2nnnc2C(F)(F)F)nn1-c1ncccc1Cl (centres unmarked) [Example 194] | 3.25 | ≥ 80% | – | –
CNC(=O)c1cc(Cl)cc(C)c1NC(=O)c1cc(Cn2nnnc2C(F)(F)F)nn1-c1ncccc1Cl [drawing 597] | – | – | – | Kill in %/7 days ([2]; 4 g/ha): 67%
CCOC1CCC(NC(=O)c2cc(C#N)cc(C)c2NC(=O)c2cc(Cn3nnc(C(F)(F)F)n3)nn2-c2ncccc2Cl)CC1 (centres unmarked) [Example 344] | – | ≥ 80% | – | chromatographic logP [1, 4]: 3.6
Cc1cc(C#N)cc(C(=O)NC(C)CC(F)(F)F)c1NC(=O)c1cc(Cn2nnc(C(F)(F)F)n2)nn1-c1ncccc1Cl (centres unmarked) [Example 75] | 3.38 | ≥ 80% | – | –
CNC(=O)c1cc(Cl)cc(C)c1NC(=O)c1cc(Cn2nnnc2-c2ccc(C(F)(F)F)cc2)nn1-c1ncccc1Cl [drawing 598] | – | – | – | Kill in %/7 days ([2]; 4 g/ha): 0%
Cc1cc(F)cc(C(=O)NC2CC2)c1NC(=O)c1cc(Cn2nnc(C(F)F)n2)nn1-c1ncccc1Cl [Example 294] | 2.41 | – | ≥ 80% | –
Cc1cc(C#N)cc(C(=O)NC(C)C#N)c1NC(=O)c1cc(Cn2nnc(C(F)(F)F)n2)nn1-c1ncccc1Cl (centres unmarked) [Example 326] | 2.76 | – | ≥ 80% | –
Cc1cc(Cl)cc(C(=O)NC(C)C)c1NC(=O)c1cc(Cn2nnc(C(F)(F)C(F)(F)F)n2)nn1-c1ncccc1Cl [drawing 595] | – | – | – | Kill in %/7 days ([2]; 0.8 g/ha): 100%
Cc1cc(C)c(NC(=O)c2cc(Cn3nnc(C(F)(F)F)n3)nn2-c2ncccc2Cl)c(C(=O)NCC2CC2)c1 [Example 83] | 3.35 | – | ≥ 80% | –
CCNC(=O)c1cc(Cl)cc(Cl)c1NC(=O)c1cc(Cn2nnc(C(F)F)n2)nn1-c1ncccc1Cl [Example 285] | 2.7 | – | ≥ 80% | –
CSC[C@H](C)NC(=O)c1cc(C#N)cc(C)c1NC(=O)c1cc(Cn2nnc(C(F)F)n2)nn1-c1ncccc1Cl [Example 268] | 2.77 | – | ≥ 80% | –
CNC(=O)c1cc(F)cc(C)c1NC(=O)c1cc(Cn2nnc(C(F)F)n2)nn1-c1ncccc1Cl [Example 292] | 2.21 | – | ≥ 80% | –
Cc1cc(C#N)cc(C(=O)NCC2CCCCC2)c1NC(=O)c1cc(Cn2nnc(C(F)(F)F)n2)nn1-c1ncccc1Cl [Example 93] | 3.96 | ≥ 80% | – | –
Cc1cc(C)c(NC(=O)c2cc(Cn3nnc(C(F)(F)F)n3)nn2-c2ncccc2Cl)c(C(=O)NC(C)C)c1 [Example 79] | 3.29 | – | ≥ 80% | –
Cc1cc(C#N)cc(C(=O)NCC2CC2(Cl)Cl)c1NC(=O)c1cc(Cn2nnnc2C(F)(F)F)nn1-c1ncccc1Cl (centres unmarked) [Example 190] | 3.16 | – | ≥ 80% | –
CSC[C@H](C)NC(=O)c1cc(Cl)cc(Cl)c1NC(=O)c1cc(Cn2nnc(C(F)F)n2)nn1-c1ncccc1Cl [Example 288] | 3.13 | – | ≥ 80% | –

— patent publication US8324390B2, “Tetrazole-substituted anthranilamides as pesticides” (Bayer CropScience AG, priority 2008, dated 2012)
